In this data set the test system is TNF-α induced IL-6. Kind of data set: TNF-α-induced IL-6 production determined by IL-6 ELISA. The format is cell-based. Particulars: for activity at 10 µM / inhibition at 10 µM: Homo sapiens; for activity at 10 µM: class = % of control IL6 production. The protocol: Human aortic endothelial cells (HAEC, Clonetics) were cultured according to manufacturer in growth medium (Clonetics): basal medium containing human epidermal growth factor, hydrocortisone, vascular endothelial growth factor, heparin binding growth factor-B, long R3-insulin-like growth factor-1, ascorbic acid, gentamicin/amphotericin and 5% FBS. These cell were allowed to reach at least 90% confluency before subjected to experimental treatments. […] Tumor necrosis factor α was from R&D Systems.
All treatments, compound-added and controls were carried out in serum free media containing 0.2% albumin. Media from all conditions were collected and used for IL-6 ELISA.
IL-6 ELISA was carried out using human IL-6 DuoSet ELISA development kit as described by manufacturer (R&D Systems). Mouse anti-human Il-6 was used as the capture antibody (2 ug/ml) and biotinylated goat anti-human IL-6 (200 ng/ml) was used as the detection antibody. Culture media were incubated with capture antibody (in 96 well) for 2 h at room temperature. Wells were washed three times with wash buffer (0.05% tween-20 in phosphate buffered saline (PBS) pH 7.4) followed by incubation with detection antibody for 2 h at room temperature. Following three washes wells were incubated with Streptavidin-HRP for 20 min. Color development was read at 450 nm in a Microplate reader.

Setting [1] is: 24 h, Table 5, first part, read-out: Inhibition of TNF-induced IL6 production.
The mark [2] stands for this setting: 24 h, Table 7, first part, read-out: Inhibition of TNF-induced IL6 production.
The mark [3] stands for this setting: 24 h, Table 5, second part, column 1, read-out: Inhibition of TNF-induced IL6, production.

SMILES strings stand for the structures. Read-outs that look alike come from different tables or passages of the source.

Consider `CCN1CCCC1CNc1nc(Nc2ccc(OC)c(F)c2)nc(NC2CCC(C)CC2)n1` (centres unmarked) [Compound 60, N^2-[(1-ethyl-2-pyrrolidinyl)methyl]-N^4-(3-fluoro-4-methoxyphenyl)-N^6-(4-methylcyclohexyl)-1,3,5-triazine-2,4,6-triamine], for which, under setting [1], the activity at 10 µM lay within 0 to 25%.
On the same count and under the same terms, to `COc1ccc(Nc2nc(NCc3ccco3)nc(NC3CCCCCC3)n2)cc1F` [Compound 91, N^2-cycloheptyl-N^4-(3-fluoro-4-methoxyphenyl)-N^6-(2-furanylmethyl)-1,3,5-triazine-2,4,6-triamine] belongs 25 to 50%.
Take `COc1ccc(Nc2nc(NC3CCCCCC3)nc(N3CCOCC3)n2)cc1` [Compound 177, N-Cycloheptyl-N′-(4-methoxy-phenyl)-6-mor-pholin-4-yl-[1,3,5]triazine-2,4-diamine]: the inhibition at 10 µM reads like this: under setting [2], 85 to 100%; (24 h, Table 7, second part, column 1, read-out: Inhibition of TNF-induced IL6 production) 65 to 85%.
For the compound `COc1ccc(Nc2nc(NC3CCCCCC3)nc(N3CCCCCC3)n2)cc1F` [Compound 83, N^2-cycloheptyl-N^4-(3-fluoro-4-methoxyphenyl)-6-hexahydro-1H-azepin-1-yl-1,3,5-triazine-2,4-diamine], under setting [1], the activity at 10 µM lay in the range of 0 to 25%.
In the case of `CCN1CCCC1CNc1nc(NC2CCCCCC2)nc(N(CC#N)c2ccccc2)n1` (centres unmarked) [Compound 44, [(4-(cycloheptylamino)-6-{[(1-ethyl-2-pyrrolidinyl)methyl]amino}-1,3,5-triazin-2-yl)(phenyl)amino]acetonitrile], the activity at 10 µM under setting [3] was 0 to 25%.
For `COc1ccc(Nc2nc(NC3CCCCCC3)nc(OCC3CCCN3C)n2)cc1Cl` (centres unmarked), where the note is “10 uM”, the “Inflammation Data, cell death at 10 uM” value was “total cell death” and the “Inflammation Data, inhibition at 10 uM” value was “complete inhibition”.
Regarding `c1ccc2cc(Nc3nc(NC4CCCCCC4)nc(N4CCOCC4)n3)ccc2c1` [Compound 174, N-Cycloheptyl-6-morpholin-4-yl-N′-naph-thalen-2-yl-[1,3,5]triazine-2,4-diamine], the inhibition at 10 µM under setting [2] was 85 to 100%.
Consider `CCN1CCCC1CNc1nc(Nc2ccccc2C)nc(NC2CCCCCC2)n1` (centres unmarked) [Compound 35, N^2-cycloheptyl-N^4-[(1-ethyl-2-pyrrolidinyl)methyl]-N^6-(2-methylphenyl)-1,3,5-triazine-2,4,6-triamine], for which the activity at 10 µM is, setting by setting: under setting [1], 25 to 50%; under setting [3], 0 to 25%.
Consider `COc1ccc(Nc2nc(NC3CCCCCC3)nc(NC3CCC(C)CC3)n2)cc1F` (centres unmarked) [Compound 85, N^2-cycloheptyl-N^4-(3-fluoro-4-methoxyphenyl)-N^6-(4-methylcyclohexyl)-1,3,5-triazine-2,4,6-triamine], for which, under setting [1], the activity at 10 µM was in the range of 25 to 50%.
In the case of `CCN1CCCC1CNc1nc(NCCN2CCCCC2)nc(Nc2ccc(OC)c(F)c2)n1` (centres unmarked) [Compound 71, N^2-[(1-ethyl-2-pyrrolidinyl)methyl]-N^4-(3-fluoro-4-methoxyphenyl)-N^6-[2-(1-piperidinyl)ethyl]-1,3,5-triazine-2,4,6-triamine], the activity at 10 µM under setting [1] lay within 0 to 25% and the activity at 10 µM under setting [3] lay in the range of 25 to 50%.
With `CCN1CCCC1CNc1nc(NC2CCCCCC2)nc(N(C)c2ccccc2C(F)(F)F)n1` (centres unmarked) [Compound 46, N^2-cycloheptyl-N^4-[(1-ethyl-2-pyrrolidinyl)methyl]-N^6-methyl-N^6-[2-(trifluoromethyl)phenyl]-1,3,5-triazine-2,4,6-triamine], the activity at 10 µM under setting [3] lay within 0 to 25%.
As for `CCN1CCCC1CNc1nc(NC2CCCCCC2)nc(N(C)c2ccc(F)cc2F)n1` (centres unmarked) [Compound 43, N^2-cycloheptyl-N^4-(2,4-difluorophenyl)-N^6-[(1-ethyl-2-pyrrolidinyl)methyl]-N^4-methyl-1,3,5-triazine-2,4,6-triamine], the activity at 10 µM under setting [3] fell in the range of 0 to 25%.
On to `COc1ccc(Nc2nc(NCc3ccccc3)nc(NC3CCCCCC3)n2)cc1F` [Compound 78, N^2-benzyl-N^4-cycloheptyl-N^6-(3-fluoro-4-methoxyphenyl)-1,3,5-triazine-2,4,6-triamine], for which, under setting [1], the activity at 10 µM lay within 25 to 50%.
As for `CCN1CCCC1CNc1nc(Nc2ccc(F)cc2)nc(NC2CCCCCC2)n1` (centres unmarked) [Compound 10, N^2-cycloheptyl-N^4-[(1-ethyl-2-pyrrolidinyl)methyl]-N^6-(4-fluorophenyl)-1,3,5-triazine-2,4,6-triamine], under setting [3], the activity at 10 µM fell in the range of 0 to 25%.
Still for that read-out and setting: to `CCN1CCCC1CNc1nc(Nc2ccc(N(C)C)cc2)nc(NC2CCCCCC2)n1` (centres unmarked) [Compound 25, N^2-cycloheptyl-N^4-[4-(dimethylamino)phenyl]-N^6-[(1-ethyl-2-pyrrolidinyl)methyl]-1,3,5-triazine-2,4,6-triamine] belongs 0 to 25%.
Consider `CCN1CCCC1CNc1nc(NCCCn2ccnc2)nc(Nc2ccc(OC)c(F)c2)n1` (centres unmarked) [Compound 75, N^2-[(1-ethyl-2-pyrrolidinyl)methyl]-N^4-(3-fluoro-4-methoxyphenyl)-N^6-[3-(1H-imidazol-1-yl)propyl]-1,3,5-triazine-2,4,6-triamine], for which the activity at 10 µM was in the range of 25 to 50% under setting [1] and 25 to 50% under setting [3].
With `CCN1CCCC1CNc1nc(NCC2CCCCC2)nc(Nc2ccc(OC)c(F)c2)n1` (centres unmarked) [Compound 65, N^2-(cyclohexylmethyl)-N^4-[(1-ethyl-2-pyrrolidinyl)methyl]-N^6-(3-fluoro-4-methoxyphenyl)-1,3,5-triazine-2,4,6-triamine], the activity at 10 µM is 0 to 25% under setting [1] and 25 to 50% under setting [3].
Turning to `COc1ccc(Nc2nc(NC3CCCCCC3)nc(OCCOc3ccccc3F)n2)cc1Cl`, the “Inflammation Data (result in words)” value (concentration not given) is “Not Active”.
As for `COc1ccc(Nc2nc(NC3CCCCCC3)nc(OC(C)C)n2)cc1Cl` [drawing 1598], the inhibition at 10 µM (10 uM, read-out: Inflammation Data, inhibition at 10 uM) is under 25%.
In the case of `COc1ccc(Nc2nc(NC3CCCCCC3)nc(N(C)C3CCN(C)CC3)n2)cc1F` [Compound 171, N-Cycloheptyl-N′-(3-fluoro-4-methoxy-phenyl)-N″-methyl-N″-(1-methyl-piperidin-4-yl)-[1,3,5]tri-azine-2,4,6-triamine], the inhibition at 10 µM fell in the range of 85 to 100% (24 h, read-out: Inhibition of TNF-induced IL6 production, Table 7, first part) and 65 to 85% (24 h, read-out: Inhibition of TNF-induced IL6 production, Table 7, second part, column 1). Also, the “% IL6 production compare to TNF stimulation of IL6 (100%), Compds tested @ 10 μM HAEC, IL6” value (Table 7, HAEC, 10 μM compound, TNF stimulation = 100%) was determined as 21%.
Consider `COc1ccc(Nc2nc(NC3CCCCCC3)nc(OC3CCNCC3)n2)cc1Cl`, for which the “Inflammation Data, cell death at 10 uM” value (10 uM) is given as 20%.
In the case of `CCN1CCCC1CNc1nc(Nc2ccc(OC)c(F)c2)nc(N2CCCCCC2)n1` (centres unmarked) [Compound 58, N^2-[(1-ethyl-2-pyrrolidinyl)methyl]-N^4-(3-fluoro-4-methoxyphenyl)-N^6-hexahydro-1H-azepin-1-yl-1,3,5-triazine-2,4-diamine], the activity at 10 µM runs as follows: under setting [1], 0 to 25%; under setting [3], 25 to 50%.
For `CCN1CCCC1CNc1nc(Nc2ccc(OC)c(F)c2)nc(NC2CCCC2)n1` (centres unmarked) [Compound 56, N^2-cyclopentyl-N^4-[(1-ethyl-2-pyrrolidinyl)methyl]-N^6-(3-fluoro-4-methoxyphenyl)-1,3,5-triazine-2,4,6-triamine], under setting [1], the activity at 10 µM was 0 to 25%.
As for `CCN1CCCC1CNc1nc(Nc2ccc3c(c2)OCCO3)nc(NC2CCCCCC2)n1` (centres unmarked) [Compound 24, N^2-cycloheptyl-N^4-(2,3-dihydro-1,4-benzodioxin-6-yl)-N^6-[(1-ethyl-2-pyrrolidinyl)methyl]-1,3,5-triazine-2,4,6-triamine], the activity at 10 µM under setting [3] lay in the range of 0 to 25%.
Take `CCN1CCCC1CNc1nc(NCCN(C)C)nc(Nc2ccc(OC)c(F)c2)n1` (centres unmarked) [Compound 68, N^2-[2-(dimethylamino)ethyl]-N^4-[(1-ethyl-2-pyrrolidinyl)methyl]-N^6-(3-fluoro-4-methoxyphenyl)-1,3,5-triazine-2,4,6-triamine]: the activity at 10 µM is, setting by setting: under setting [1], 0 to 25%; under setting [3], 25 to 50%.

For orientation: inhibition means the percentage by which the read-out fell short of the control.

The record behind these values is patent publication US7332489B2, “Methods and compositions of novel triazine compounds” (Reddy US Therapeutics, Inc., priority 2003, dated 2008).
